Results from US7851637B2, “Compounds and methods for inhibiting the interaction of BCL proteins with binding partners” (Infinity Pharmaceuticals, Inc., priority 2004, dated 2010).

What was measured:
Bcl-xL = Bcl-xL (Homo sapiens, UniProt Q07817); experiment: Bcl-xL binding affinity analysis (fluorescence polarization binding assay); design: scale not given here
Summary of the method: (§1)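 Sensitive, quantitative cell-free test: compound incubated with protein, then polarization of emitted fluorescence recorded to gauge affinity.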

Bcl-2 = Bcl-2 (Homo sapiens, UniProt P10415); experiment: Bcl-2 binding affinity analysis (fluorescence polarization binding assay)
Sequence of Bcl-2 (P10415 whole entry): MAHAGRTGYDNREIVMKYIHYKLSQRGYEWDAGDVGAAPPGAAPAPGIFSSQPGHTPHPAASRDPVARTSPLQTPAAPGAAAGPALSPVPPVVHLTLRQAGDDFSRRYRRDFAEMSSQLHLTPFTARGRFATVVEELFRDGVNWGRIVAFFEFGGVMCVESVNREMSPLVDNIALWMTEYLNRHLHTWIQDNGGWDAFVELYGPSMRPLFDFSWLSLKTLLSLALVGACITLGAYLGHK
Summary of the method: as §1

Sequence of Bcl-xL (Q07817 whole entry): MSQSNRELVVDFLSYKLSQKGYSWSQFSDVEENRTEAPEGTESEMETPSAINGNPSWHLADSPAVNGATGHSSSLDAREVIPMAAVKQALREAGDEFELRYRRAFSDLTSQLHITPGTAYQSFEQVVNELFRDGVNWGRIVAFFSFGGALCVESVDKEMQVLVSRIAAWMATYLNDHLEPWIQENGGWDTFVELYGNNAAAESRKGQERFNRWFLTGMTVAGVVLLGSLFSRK

Row | SMILES | Bcl-XL binding affinity Ki (Bcl-xL) | Ki (Bcl-2)
1 | C[C@@H](O)[C@H]1[C@@H](CO)ON(Cc2cccc(C#CC(O)c3ccc(-n4ccnc4)cc3)c2)[C@H]1C(=O)NCCCN(C)c1ccccc1 (stereo partly shown) [Compound 42] | ♯♯ | 800 to 6000 nM
2 | C[C@@H]1[C@@H](NC(=O)[C@@H]2[C@H]([C@H](C)O)[C@H](CO)ON2Cc2cccc(-c3cccc(C(=O)NCCN4CCCC4)c3)c2)C[C@H]2C[C@@H]1C2(C)C [Compound 215] | ♯ | < 800 nM
3 | C[C@@H]1[C@@H](NC(=O)[C@@H]2[C@H]([C@H](C)O)[C@H](CO)ON2Cc2cccc(CN(CCCc3ccccc3)CCN(C)C)c2)C[C@H]2C[C@@H]1C2(C)C [Compound 205] | ♯ | < 800 nM
4 | CC(C)CNC(=O)c1cccc(-c2cccc(CN3O[C@@H](CO)[C@@H]([C@H](C)O)[C@H]3C(=O)N[C@H]3C[C@H]4C[C@@H]([C@@H]3C)C4(C)C)c2)c1 [Compound 151] | ♯♯ | < 800 nM
5 | CCCNC(=O)c1cccc(-c2cccc(CN3O[C@@H](CO)[C@@H]([C@H](C)O)[C@H]3C(=O)N[C@H]3C[C@H]4C[C@@H]([C@@H]3C)C4(C)C)c2)c1 [Compound 135] | ♯♯ | < 800 nM
6 | C[C@@H]1[C@@H](NC(=O)[C@@H]2[C@H]([C@H](C)O)[C@H](CO)ON2Cc2cccc(-c3cccc(C(=O)NCCCN(C)C)c3)c2)C[C@H]2C[C@@H]1C2(C)C [Compound 216] | ♯ | < 800 nM
7 | C[C@@H]1[C@@H](NC(=O)[C@@H]2[C@H]([C@H](C)O)[C@H](CO)ON2Cc2cccc(-c3cccc(C(=O)NCC4CC4)c3)c2)C[C@H]2C[C@@H]1C2(C)C [Compound 145] | ♯♯ | < 800 nM
8 | C[C@@H]1[C@@H](NC(=O)[C@@H]2[C@H]([C@H](C)O)[C@H](CO)ON2Cc2cccc(-c3cccc(C(=O)NCCN4CCN(C)CC4)c3)c2)C[C@H]2C[C@@H]1C2(C)C [Compound 116] | ♯ | < 800 nM
9 | C[C@@H](O)[C@H]1[C@@H](CO)ON(Cc2cccc(C#CC(C)(O)c3ccccc3)c2)[C@H]1C(=O)NCC1CCCCC1 (stereo partly shown) [Compound 37] | ♯ | 6000 to 50000 nM
10 | CC(O)C1[C@H](CO)ON(Cc2cccc(C#Cc3ccccn3)c2)[C@@H]1C(=O)N[C@H]1C[C@H]2CC([C@@H]1C)C2(C)C (stereo partly shown) [Compound 32] | ♯ | 800 to 6000 nM
11 | C[C@@H]1[C@@H](NC(=O)[C@@H]2[C@H]([C@H](C)O)[C@H](CO)ON2Cc2cccc(-c3cccc(C(=O)NCCO)c3)c2)C[C@H]2C[C@@H]1C2(C)C [Compound 218] | ♯ | < 800 nM
12 | C[C@H](O)[C@@H]1[C@H](CO)ON(Cc2cccc(C#CC3(N)CCCCC3)c2)[C@@H]1C(=O)NCCCN(C)c1ccccc1 [Compound 28] | ♯ | 6000 to 50000 nM
13 | C[C@H](O)[C@@H]1[C@H](CO)ON(Cc2cccc(CN(CCN(C)C)Cc3ccccc3)c2)[C@@H]1C(=O)NC1C[C@H]2C[C@@H]([C@@H]1C)C2(C)C (stereo partly shown) [Compound 221] | ♯ | < 800 nM
14 | COc1c(CN2O[C@@H](CO)[C@@H]([C@H](C)O)[C@H]2C(=O)N[C@H]2C[C@H]3C[C@@H]([C@@H]2C)C3(C)C)cccc1-c1cccc(C(=O)NCCN(C)C)c1 [Compound 165] | ♯ | < 800 nM
15 | C[C@@H]1[C@@H](NC(=O)[C@@H]2[C@H]([C@H](C)O)[C@H](CO)ON2Cc2cccc(-c3ccc(C(=O)N(C)C)c([N+](=O)[O-])c3)c2)C[C@H]2C[C@@H]1C2(C)C [Compound 136] | ♯ | < 800 nM
16 | C[C@@H](O)[C@H]1[C@@H](CO)ON(Cc2cccc(C#CC3(O)CCCC3)c2)[C@H]1C(=O)NCC1CCCCC1 [Compound 40] | ♯ | > 50000 nM
17 | C[C@@H](O)[C@H]1[C@@H](CO)ON(Cc2cccc(C#CCNC(=O)c3ccccc3)c2)[C@H]1C(=O)NCCNCc1ccccc1 [Compound 61] | ♯ | 6000 to 50000 nM
18 | C[C@@H]1[C@@H](NC(=O)[C@@H]2[C@H]([C@H](C)O)[C@H](CO)ON2Cc2cccc(-c3ccc(S(N)(=O)=O)cc3)c2)C[C@H]2C[C@@H]1C2(C)C [Compound 120] | ♯♯ | < 800 nM
19 | C[C@@H]1[C@@H](NC(=O)[C@@H]2[C@H]([C@H](C)O)[C@H](CO)ON2Cc2cccc(-c3cccc(S(C)(=O)=O)c3)c2)C[C@H]2C[C@@H]1C2(C)C [Compound 200] | ♯ | < 800 nM

Results, then the molecule that gave them:

Row | Bcl-XL binding affinity Ki (Bcl-xL) | Ki (Bcl-2) | SMILES
20 | ♯ | 6000 to 50000 nM | C[C@H](O)[C@@H]1[C@H](CO)ON(Cc2cccc(CN(CCN(C)C)Cc3ccccc3)c2)[C@@H]1C(=O)N[C@H]1CCN(Cc2ccccc2)C1 [Compound 518]
21 | ♯ | 6000 to 50000 nM | COCCNC(=O)[C@@H]1[C@H]([C@H](C)O)[C@H](CO)ON1Cc1cccc(CN(Cc2ccccc2)[C@@H](CC(C)C)CN(C)C)c1 [Compound 535]
22 | ♯ | < 800 nM | CSc1ccccc1CN(Cc1cccc(CN2OC(CO)C(C(C)O)C2C(=O)NC2CC3CC(C2C)C3(C)C)c1)C(CC(C)C)CN(C)C (stereo not shown) [Compound 330]
23 | ♯ | < 800 nM | CC(O)C1C(CO)ON(Cc2cccc(CN(CCN(C)C)Cc3ccccc3N3CCOCC3)c2)C1C(=O)NC1CC2CC(C1C)C2(C)C (stereo not shown) [Compound 364]
24 | ♯ | < 800 nM | C[C@@H]1C(NC(=O)[C@@H]2[C@H]([C@H](C)O)[C@H](CO)ON2Cc2cccc(-c3ccc(NCCCN(C)C)cc3)c2)C[C@@H]2CC1C2(C)C (stereo partly shown) [Compound 272]
25 | ♯ | < 800 nM | C[C@@H]1C(NC(=O)[C@@H]2[C@H]([C@H](C)O)[C@H](CO)ON2Cc2cccc(-c3ccc(NCCN(C)C)cc3)c2)C[C@@H]2CC1C2(C)C (stereo partly shown) [Compound 276]
26 | ♯ | < 800 nM | C[C@H](O)[C@@H]1[C@H](CO)ON(Cc2cccc(N3CCN(C(=O)OCc4ccccc4)CC3)c2)[C@@H]1C(=O)NC1C[C@H]2C[C@@H]([C@@H]1C)C2(C)C (stereo partly shown) [Compound 253]
27 | ♯ | < 800 nM | C[C@@H]1[C@@H](NC(=O)[C@@H]2[C@H]([C@H](C)O)[C@H](COC(=O)NCCN3CCOCC3)ON2Cc2cccc(-c3ccc(C(=O)N(C)C)cc3)c2)C[C@H]2C[C@@H]1C2(C)C [Compound 245]
28 | ♯ | < 800 nM | Cc1cccc(CN(Cc2cccc(CN3OC(CO)C(C(C)O)C3C(=O)NC3CC4CC(C3C)C4(C)C)c2)C(CC(C)C)CN(C)C)c1O (stereo not shown) [Compound 337]
29 | ♯ | < 800 nM | CC(O)C1C(CO)ON(Cc2cccc(CN(CCN(C)C)C(C)(C)c3ccccc3)c2)C1C(=O)NC1CC2CC(C1C)C2(C)C (stereo not shown) [Compound 475]
30 | ♯ | < 800 nM | COc1cccc(O)c1CN(Cc1cccc(CN2OC(CO)C(C(C)O)C2C(=O)NC2CC3CC(C2C)C3(C)C)c1)C(CC(C)C)CN(C)C (stereo not shown) [Compound 336]
31 | ♯ | 800 to 6000 nM | C[C@@H]1[C@@H](NC(=O)[C@@H]2[C@H]([C@H](C)O)[C@H](CO)ON2CCCCN(CCCc2ccccc2)CCN(C)C)C[C@H]2C[C@@H]1C2(C)C [Compound 545]
32 | ♯ | < 800 nM | COc1ccc(O)c(CN(Cc2cccc(CN3OC(CO)C(C(C)O)C3C(=O)NC3CC4CC(C3C)C4(C)C)c2)C(CC(C)C)CN(C)C)c1 (stereo not shown) [Compound 332]
33 | ♯ | < 800 nM | C[C@H](O)[C@@H]1[C@H](CO)ON(Cc2cccc(CN(CCN(C)C)Cc3ccccc3)c2)[C@@H]1C(=O)Nc1cccc(-c2ccccc2)c1 [Compound 515]
34 | ♯ | < 800 nM | C[C@@H]1[C@@H](NC(=O)[C@@H]2C([C@H](C)O)[C@H](CO)ON2Cc2cccc(CN(CCN(C)C)CC3CC4C=CC3C4)c2)C[C@H]2C[C@@H]1C2(C)C (stereo partly shown) [Compound 401]
35 | ♯ | < 800 nM | Cc1ccccc1CN(CCN(C)C)Cc1cccc(CN2OC(CO)C(C(C)O)C2C(=O)NC2CC3CC(C2C)C3(C)C)c1 (stereo not shown) [Compound 372]
36 | ♯ | < 800 nM | COc1cccc(CN(CCN(C)C)Cc2cccc(CN3OC(CO)C(C(C)O)C3C(=O)NC3CC4CC(C3C)C4(C)C)c2)c1 (stereo not shown) [Compound 381]
37 | ♯ | 800 to 6000 nM | C[C@H](O)[C@@H]1[C@H](CO)ON(Cc2cccc(CN(CCN(C)C)Cc3ccccc3)c2)[C@@H]1C(=O)N[C@H](C)c1ccc2ccccc2c1 [Compound 522]
38 | ♯ | 800 to 6000 nM | CC(C)C[C@@H](CN(C)C)N(Cc1ccccc1)Cc1cccc(CN2O[C@@H](CO)[C@@H]([C@H](C)O)[C@H]2C(=O)NCc2cccc3ccccc23)c1 [Compound 532]
39 | ♯ | < 800 nM | C[C@@H]1[C@@H](NC(=O)[C@@H]2[C@H]([C@H](C)O)[C@H](CO)ON2Cc2cccc(N3CCN(C(=S)NCc4ccccc4)CC3)c2)C[C@H]2C[C@@H]1C2(C)C [Compound 263]
40 | ♯ | < 800 nM | C[C@@H]1[C@@H](NC(=O)[C@@H]2C([C@H](C)O)[C@H](CO)ON2Cc2cccc(CN(CCN(C)C)Cc3ccccc3-c3ccccc3F)c2)C[C@H]2C[C@@H]1C2(C)C (stereo partly shown) [Compound 343]
41 | ♯ | < 800 nM | COc1cccc(CN(Cc2cccc(CN3OC(CO)C(C(C)O)C3C(=O)NC3CC4CC(C3C)C4(C)C)c2)C(CC(C)C)CN(C)C)c1OC (stereo not shown) [Compound 304]
42 | ♯ | 800 to 6000 nM | CC(C)C[C@@H](CN(C)C)N(Cc1ccccc1)Cc1cccc(CN2O[C@@H](CO)[C@@H]([C@H](C)O)[C@H]2C(=O)NCc2ccccc2)c1 [Compound 542]
43 | ♯♯ | < 800 nM | C[C@@H]1C(NC(=O)[C@@H]2[C@H]([C@H](C)O)[C@H](CO)ON2Cc2cccc(-c3ccc(NC(=O)N(C)C)cc3)c2)C[C@@H]2CC1C2(C)C (stereo partly shown) [Compound 283]
44 | ♯ | 6000 to 50000 nM | CC(C)C[C@@H](CN(C)C)N(Cc1ccccc1)Cc1cccc(CN2O[C@@H](CO)[C@@H]([C@H](C)O)[C@H]2C(=O)NCCCn2ccnc2)c1 [Compound 529]
